Experimental data from EP1828393B1 (priority 2004, dated 2006).

Experiment: Miscibility of glycolonitrile with water
Assay type: physicochemical
Settings: 25 °C
Description: As the reaction progresses, the α-hydroxynitrile dissolves into the aqueous phase, and eventually a single phase product mixture is obtained. The reaction may also be run by adding the α-hydroxynitrile to the reaction mixture at a rate approximately equal to the enzymatic hydrolysis reaction rate, thereby maintaining a single-phase aqueous reaction mixture, and avoiding the potential problem of substrate inhibition of the enzyme at high starting material concentrations.

SMILES: N#CCO [Glycolonitrile, glycolonitrile]
- miscibility with water: completely miscible with water in all proportions
